In patent publication US20240024479A1, “NK CELLS OR T CELLS EXPRESSING CHIMERIC HEMATOPOIETIC GROWTH FACTOR RECEPTORS AND METHODS OF USE” (The United States of America, as represented by the …, priority 2020, published 2024):

Experiments:
[1] = test system: GFP+ MPL+ transduced cells; assay: Cell surface phenotype of c-MPL-transduced primary NK cells; assay type: cell-based, human
Method: Human NK cells were stimulated and transduced with c-MPL/GFP lentiviral vectors. […] After 4 days, cellular function was assessed by mixing at a 1:1 ratio with K562 target cells and assessing (FIG. 13A) NK cell degranulation (by surface anti-CD107a staining) two hours later, or (FIG. 13B) intracellular IFN-γ and TNF-α four hours after addition of K562. Results for gated GFP transduced cells or independent untransduced cultures from the same donors are shown. The cell surface phenotype of the NK cells was also assessed after 4 days of culture with cytokines as indicated (FIG. 13C).
Flow cytometry, reagents and pathway analysis: Fluorochrome-conjugated monoclonal antibodies were used as follows: BD Biosciences: CD56-PE-Cy7 (NCAM16.2), CD3-PE (UCHT1), c-MPL-PE (1.6.1), STAT5(pY694)-Alexa Fluor647 (47/stat5(pY694)), NKp46-APC (9E2), NKp44-PE (p44-8), FAS-PE (DX2) CD62L-V450 (DREG-56); R&D systems: EPOR-PE (FAB307P); Biolegend: Bc1-2-PE (100), TRAIL-APC (RIK-2), CXCR4-BV421 (12G5), KIR3DL1-BV421 (DX9); Abcam: Bcl-xL-PE (ab208747); Cell signaling technology: P-p44/42 MAPK-Alexa Fluor647 (E10) and p-S6 ribosomal protein-PE (D57.2.2E); Beckman Coulter: NKG2A-PE (Z199), KIR2DL1/S1-PE (EB6B), KIR2DL2/3-PE/Cy5.5 (GL183). Staining was performed in phosphate-buffered saline (PBS) with 2% FBS and 2 mM EDTA and analyzed on a BD LSRFortessa machine. […] The data were analyzed on FlowJo software.

GFP+ MPL+ cells = assay: Persistence of transduced human NK cells in immunodeficient mice; assay type: in vivo, NSG mice; conditions: for average percentage of GFP+ MPL+ cells amongst the recovered human cells: TPO 50 μg/kg daily, 4 days, about 10% of injected cells
Source text: Both populations were then mixed at a 1:1 ratio immediately before injection intravenously into NSG mice (such that GFP^+ MPL^+ cells and GFP^+ CD34^+ cells each constituted ˜10% of the mixed cells). Each mouse received 2.2×10^7 total human NK cells. […] MPL-transduced NK cells were identified as GFP^+ MPL^+ while CD34-transduced NK cells were gated as GFP^+ CD34^+. The frequency of transduced cells is presented (FIG. 14A) as a percentage of MHC-I^+ human cells isolated from organs or (FIG. 14B) as percent of total live mononuclear cells recovered from each organ. The legend applies to both FIGS. 14A and 14B. Data from 9 mice per group are shown with NK cells derived from 3 human blood donors. Data was normalized to account for unequal transduction or subset mixing before injection using the equation: […]
Persistence of transduced human NK cells in immunodeficient mice: NK cells from human PBMC were transduced with matched lentiviral vectors encoding GFP/MPL or GFP/CD34 then mixed at a 1:1 ratio and injected intravenously into NSG mice (2.2×10^7 total cells/mouse). […] After euthanasia, blood was drawn by cardiac puncture, bone marrow was harvested by flushing the tibia, and spleen, liver, and lung fragments were processed by grinding over 70 μm nylon mesh. Blood, bone marrow, lung, and spleen samples received 1-2 rounds of 5 minute incubations with ACK lysis buffer (Quality biological). Liver samples were purified by centrifugation over 35% Percoll (Sigma) solution in RPMI. The presence of transduced human cells was quantified in various organs via flow cytometry using antibodies to human MHC class I (W6/32) (BioLegend), c-MPL (1.6.1), CD34 (581) (BD BioSciences), GFP-fluorescence, and Live/Dead Aqua viability dye (Thermo Fisher).

[2] = test system: c-MPL transduced NK cells; assay: Proliferation of c-MPL-expressing human NK cells with thrombopoietin mimetics; assay type: cell-based; conditions: 4-5 days culture
Method: FIGS. 16A-16C show proliferation of human NK cells transduced to express GFP and c-MPL cultured for 4-5 days with the indicated concentrations of thrombopoietin (FIG. 16A), romiplostim (FIG. 16B), or eltrombopag (FIG. 16C). […] Mean and SEM of results from 3 blood donors are shown.
NK cells from PBMC from three blood donors were stimulated and transduced to express GFP and c-MPL, then were cultured for 4-5 days with thrombopoietin, romiplostim, or eltrombopag.

721.221 = assay: Flow cytometry based killing assay, c-MPL+ NK-92 effectors vs 721.221; assay type: cell-based, human; conditions: c-MPL+ NK-92 with TPO administration
Method: The target cells were labeled with 1 μM cell trace violet in some experiments (Thermo Fisher Scientific). The effector and target cells were incubated together in duplicate wells at specific E:T ratio in complete medium without cytokines for 4 hours (total cell number: 200,000 to 250,000 per well in 96-well plate). 7-AAD and Sphero AccuCount Fluorescent particles (Spherotech, IL) were added before analysis by flow cytometry. The absolute number of viable 7-AAD negative target cells was calculated according to bead numbers added (Cooper et al., Leukemia 32:1970-1983, 2018). The percentage of dead cells was calculated relative to target cell only control wells.

c-MPL transduced T cells = assay: Competitive expansion of c-MPL-transduced primary T cells; assay type: cell-based, human
Method: In vitro cell expansion cultures: The NK-92 (5×10^4 cell/ml) and KHYG-1 (1×10^4 cell/ml) cells were cultured in 1 ml of complete medium in 24-well plate. […] Trypan blue negative cells were counted every other day. […] For competitive primary NK and T cell expansion assay, all transduced cells (5×10^5/ml for NK and 4×10^5/ml for T cell) containing a mixture of GFP positive (transduced) and GFP negative (untransduced) cells were plated on day 0. Fresh medium with appropriate supplements was replaced every other day for NK cells and only on day 3 for T cell experiment. Viable cells were counted and percentage of GFP^+ cells was acquired on indicated days (NK: day 4 and 6, T: day 3 and 6). The fold change of GFP^+ cells was calculated by multiplying the counted cell number times the fraction GFP^+.

[3] = test system: untransduced control cells; assay: Degranulation assay and cytokine production, untransduced control cells; assay type: cell-based, human; conditions: TPO administration
Method: To examine degranulation, cells were washed after two hours and stained with anti-CD107a (H4A3) (BioLegend). To assay cytokine production, GolgiPlug and GolgiStop (BD Biosciences) were added at manufacturer's recommended concentrations within the first hour of co-culture with K562. After 4 hours, cells were washed and stained for cell surface markers, then stained intracellularly with mAb recognizing TNF-α (Mab 11) and IFN-γ (B27) (BD Biosciences).

## TPO: recombinant human thrombopoietin, ligand of the c-MPL receptor; 50 ng/ml rhTPO (R&D)
[1]; TPO added to media containing 25 U/ml IL-2, normalized to each donor
  CD62L expression: significantly increased CD62L expression
[1]; TPO added to media containing 25 U/ml of IL-2
  NK cell phenotype other than CD62L: no phenotypic differences
GFP+ MPL+ cells; TPO-treated mice
  GFP+ MPL+ cells as percentage of total live cells from each organ, vs GFP+ CD34+ control cells: significantly more
GFP+ MPL+ cells; blood and spleen
  average percentage of GFP+ MPL+ cells amongst the recovered human cells: 15%
GFP+ MPL+ cells; liver and lung
  average percentage of GFP+ MPL+ cells amongst the recovered human cells: 20%
[2]
  proliferation of c-MPL transduced NK cells: induce proliferation
721.221
  killing of 721.221 tumor targets: no significant killing augmentation
c-MPL transduced T cells; D6, TPO alone
  GFP fold-expansion of c-MPL transduced T cells: 5.96 fold
c-MPL transduced T cells; day 6, TPO plus LD IL-2
  GFP fold-expansion of c-MPL+ activated T cells: 11.39 fold
[3]
  degranulation or cytokine production of untransduced control cells: no measured effects
